# Results published in PubChem BioAssay (NCI).
#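 All cell lines were grown in 96-well plates and treated with compound for 48 hours. GI50: concentration for 50% inhibition of growth. TGI is the concentration that stops growth completely.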
# Test system: OVCAR-4 ovarian
# Assay: inhibition of tumour cell growth, NCI panel, 48 h
SMILES,TGI [µM],GI50 [µM]
CC(=O)Nn1c(=S)[nH]c2ccccc21,> 100,
C[C@]12CCC3C4=C(CCC3C1CCC2=O)C(=O)[C@H]1O[C@H]1C4=O (some centres not stated),7.96,
CCCCOC(=O)Nc1ccc(S(=O)(=O)Nc2ccccc2Cl)cc1,41.2,
O=[N+]([O-])c1ccc(Cl)cc1N/N=C/c1ccnc2ccccc12,> 100,
CC(C)c1cc2c(cc1S(=O)(=O)O)[C@@]1(C)CCC[C@@](C)(C(=O)O)C1CC2 (some centres not stated),> 100,
N#CC(Cc1ccccc1)N(CCC1=CCCCC1)C(c1ccccc1)c1ccccc1 (configuration not stated),> 100,
C/C(=C\CBr)CCC(Br)C(C)(C)Br (configuration not stated),> 100,
C#CCn1c(=O)c2ccccc2n(CC#C)c1=O,> 10,
[N-]=[N+]=NC(c1ccccc1)(c1ccccc1)c1ccccc1,57.9,
CC(=O)c1c2c(c3ccccc3c1O)O[C@@H]1OCC[C@H]21,> 100,
C(=C(c1ccc(OC2CCCCO2)cc1)c1ccc(OC2CCCCO2)cc1)c1ccccc1 (configuration not stated),1.75,
CC(=O)Oc1cccc2c1C(=O)CCCC2,> 100,
O=C(c1ccccn1)C1(N2CCCCC2)CCCCC1,> 100,
CCN(CC)C(=S)N/N=C/c1cc([N+](=O)[O-])ccc1O,19.1,
COc1ccc(CN2C(=O)/C(=C\c3cc(OC)c(OC)c(OC)c3)c3ccccc32)cc1,> 100,3.25
CCC(=O)NCC1CCCN2CCCCC12 (configuration not stated),> 100,
S=C(N/N=C(/c1ccccc1)c1ccccn1)N(Cc1ccccn1)Cc1ccccn1,1.73,
O=C(OCc1ccccc1)N1CCNCCN(C(=O)OCc2ccccc2)CCNCC1,> 100,
O=C(Cc1ccc(O)c(O)c1)NCc1c[nH]c2ccccc12,> 100,
COc1ccc(-n2c(C)nc3ccc(NC(=S)Nc4ccccc4)cc3c2=O)cc1,> 100,
O=C(NCc1ccccc1)c1n[nH][nH]c1=O,> 100,
COc1cccc(C2SC(N)=Nc3c2c(C)nn3C(=O)c2ccccc2O)c1 (configuration not stated),> 8.45,

# Test system: M14 melanoma
# Assay: inhibition of tumour cell growth, NCI panel, 48 h
SMILES,TGI [µM],GI50 [µM]
CCOC(=O)c1c(CN2CCCC2)n(-c2ccccc2)c2cc(Br)c(O)cc12,29,
COc1cccc(Nc2nc(-c3cccs3)nc3cc(OC)c(OC)cc23)c1,82.2,
Nn1c(-c2ccccc2)n[nH]c1=O,> 100,
Nn1c(Nc2ccc(S(=O)(=O)Nc3ncccn3)cc2)nnc(/C=C/c2c(O)ccc3ccccc23)c1=O,78.2,
Cc1cc(-c2nc3ccc(F)cc3s2)ccc1NC(=O)[C@H](C)N,3.94,
C=CC1(CC/C(=C\[N+](=O)[O-])c2ccc(OC)c(OC)c2)OCC(C)(C)CO1,39.6,
Cc1cc(Nc2ccc(S(=O)(=O)O)c3cc(S(=O)(=O)O)cc(S(=O)(=O)O)c23)c2ccccc2n1,> 100,
Cc1cc(C)nc(NS(=O)(=O)c2ccc(NC(=O)c3ccc4nc5ccccc5c(Nc5ccc(S(N)(=O)=O)cc5)c4c3)cc2)n1,> 100,
CC1(C(=O)O)CCC2(C)CCC3(C)C(=CC(=O)C4C5(C)CCC(O)C(C)(C)C5CCC43C)C2C1 (configuration not stated),> 100,
NS(=O)(=O)c1nnc(NC(=O)Nc2ccc(Cl)c(Cl)c2)s1,32.3,
COC(=O)c1c(C)nc2c1cc(O)c1[nH]c(C)c(C)nc12,> 100,
Cn1c2ccc3cc2c(=S)c2cc(ccc21)OCCOCCOCCOCCOCCOCCO3,> 10,
O=[N+]([O-])c1cc(C=NC23CC4CC(CC(C4)C2)C3)ccc1Cl,26.1,
COc1cc(S(=O)(=O)Nc2nc(-c3ccc(N4C(=O)C(CC(=O)O)SC4c4cccs4)cc3)cs2)ccc1Cl (configuration not stated),> 100,
CCCCCC1=CC(=O)C1(Cl)Cl,45.6,
Oc1ccccc1CNCc1nc2ccccc2[nH]1,> 100,
COc1ncc(/C=C2\OC(=O)c3ccccc32)c(OC)n1,> 100,
CC(=O)Nn1c(=S)[nH]c2ccccc21,> 100,
C[C@]12CCC3C4=C(CCC3C1CCC2=O)C(=O)[C@H]1O[C@H]1C4=O (some centres not stated),10.2,
CCCCOC(=O)Nc1ccc(S(=O)(=O)Nc2ccccc2Cl)cc1,37.7,

SMILES,TGI [µM],GI50 [µM]
O=[N+]([O-])c1ccc(Cl)cc1N/N=C/c1ccnc2ccccc12,> 100,
CC(C)c1cc2c(cc1S(=O)(=O)O)[C@@]1(C)CCC[C@@](C)(C(=O)O)C1CC2 (some centres not stated),> 100,
N#CC(Cc1ccccc1)N(CCC1=CCCCC1)C(c1ccccc1)c1ccccc1 (configuration not stated),> 100,
C/C(=C\CBr)CCC(Br)C(C)(C)Br (configuration not stated),> 100,
C#CCn1c(=O)c2ccccc2n(CC#C)c1=O,> 10,
[N-]=[N+]=NC(c1ccccc1)(c1ccccc1)c1ccccc1,35.5,
CC(=O)c1c2c(c3ccccc3c1O)O[C@@H]1OCC[C@H]21,> 100,
C(=C(c1ccc(OC2CCCCO2)cc1)c1ccc(OC2CCCCO2)cc1)c1ccccc1 (configuration not stated),2,
CC(=O)Oc1cccc2c1C(=O)CCCC2,> 100,
O=C(c1ccccn1)C1(N2CCCCC2)CCCCC1,> 100,
CCN(CC)C(=S)N/N=C/c1cc([N+](=O)[O-])ccc1O,29.1,
COc1ccc(CN2C(=O)/C(=C\c3cc(OC)c(OC)c(OC)c3)c3ccccc32)cc1,5.48,2.41
CCC(=O)NC(Nc1cc(C)on1)(C(F)(F)F)C(F)(F)F,> 100,
Nc1nc(-c2ccccc2)nc2oc(-c3cccs3)nc12,> 100,
S=C(N/N=C(/c1ccccc1)c1ccccn1)N(Cc1ccccn1)Cc1ccccn1,2.97,
Cc1oc2c(cc(O)c3cc(O)ccc32)c2cccc1-2,> 100,
O=C(Cc1ccc(O)c(O)c1)NCc1c[nH]c2ccccc12,> 100,
O=C(NCc1ccccc1)c1n[nH][nH]c1=O,> 100,
COc1cccc(C2SC(N)=Nc3c2c(C)nn3C(=O)c2ccccc2O)c1 (configuration not stated),> 10,

# Test system: A549 NSCLC
# Assay: inhibition of tumour cell growth, NCI panel, 48 h
SMILES,TGI [µM],GI50 [µM]
CCOC(=O)c1c(CN2CCCC2)n(-c2ccccc2)c2cc(Br)c(O)cc12,32,
COc1cccc(Nc2nc(-c3cccs3)nc3cc(OC)c(OC)cc23)c1,> 100,
Nn1c(-c2ccccc2)n[nH]c1=O,> 100,
Nn1c(Nc2ccc(S(=O)(=O)Nc3ncccn3)cc2)nnc(/C=C/c2c(O)ccc3ccccc23)c1=O,> 100,
Cc1cc(-c2nc3ccc(F)cc3s2)ccc1NC(=O)[C@H](C)N,24.6,
C=CC1(CC/C(=C\[N+](=O)[O-])c2ccc(OC)c(OC)c2)OCC(C)(C)CO1,> 100,
Cc1cc(Nc2ccc(S(=O)(=O)O)c3cc(S(=O)(=O)O)cc(S(=O)(=O)O)c23)c2ccccc2n1,> 100,
Cc1cc(C)nc(NS(=O)(=O)c2ccc(NC(=O)c3ccc4nc5ccccc5c(Nc5ccc(S(N)(=O)=O)cc5)c4c3)cc2)n1,> 100,
CC1(C(=O)O)CCC2(C)CCC3(C)C(=CC(=O)C4C5(C)CCC(O)C(C)(C)C5CCC43C)C2C1 (configuration not stated),> 100,
NS(=O)(=O)c1nnc(NC(=O)Nc2ccc(Cl)c(Cl)c2)s1,> 100,
COC(=O)c1c(C)nc2c1cc(O)c1[nH]c(C)c(C)nc12,> 100,
Cn1c2ccc3cc2c(=S)c2cc(ccc21)OCCOCCOCCOCCOCCOCCO3,> 10,
O=[N+]([O-])c1cc(C=NC23CC4CC(CC(C4)C2)C3)ccc1Cl,> 100,
COc1cc(S(=O)(=O)Nc2nc(-c3ccc(N4C(=O)C(CC(=O)O)SC4c4cccs4)cc3)cs2)ccc1Cl (configuration not stated),> 100,
CCCCCC1=CC(=O)C1(Cl)Cl,71.5,
CC(=O)N(C(=O)CC(=O)N1N=C(c2ccccc2)C(N=Nc2ccccc2[N+](=O)[O-])C1=O)c1ccc(Cl)cc1 (configuration not stated),> 10,
Oc1ccccc1CNCc1nc2ccccc2[nH]1,> 100,
COc1ncc(/C=C2\OC(=O)c3ccccc32)c(OC)n1,> 100,
CC(=O)Nn1c(=S)[nH]c2ccccc21,> 100,
C[C@]12CCC3C4=C(CCC3C1CCC2=O)C(=O)[C@H]1O[C@H]1C4=O (some centres not stated),26.4,
CCCCOC(=O)Nc1ccc(S(=O)(=O)Nc2ccccc2Cl)cc1,> 100,
O=[N+]([O-])c1ccc(Cl)cc1N/N=C/c1ccnc2ccccc12,> 100,

SMILES,TGI [µM],GI50 [µM]
CC(C)c1cc2c(cc1S(=O)(=O)O)[C@@]1(C)CCC[C@@](C)(C(=O)O)C1CC2 (some centres not stated),> 100,
N#CC(Cc1ccccc1)N(CCC1=CCCCC1)C(c1ccccc1)c1ccccc1 (configuration not stated),> 100,
C/C(=C\CBr)CCC(Br)C(C)(C)Br (configuration not stated),> 100,
C#CCn1c(=O)c2ccccc2n(CC#C)c1=O,> 10,
[N-]=[N+]=NC(c1ccccc1)(c1ccccc1)c1ccccc1,34.3,
CC(=O)c1c2c(c3ccccc3c1O)O[C@@H]1OCC[C@H]21,> 100,
C(=C(c1ccc(OC2CCCCO2)cc1)c1ccc(OC2CCCCO2)cc1)c1ccccc1 (configuration not stated),1.69,
CC(=O)Oc1cccc2c1C(=O)CCCC2,> 100,
O=C(c1ccccn1)C1(N2CCCCC2)CCCCC1,> 100,
CCN(CC)C(=S)N/N=C/c1cc([N+](=O)[O-])ccc1O,54,
COc1ccc(CN2C(=O)/C(=C\c3cc(OC)c(OC)c(OC)c3)c3ccccc32)cc1,> 100,2.51
N[C@@H](CCC(=O)NCP(=O)(O)O)C(=O)O,> 100,
CCC(=O)NC(Nc1cc(C)on1)(C(F)(F)F)C(F)(F)F,> 100,
CCC(=O)NCC1CCCN2CCCCC12 (configuration not stated),> 100,
Nc1nc(-c2ccccc2)nc2oc(-c3cccs3)nc12,> 100,
S=C(N/N=C(/c1ccccc1)c1ccccn1)N(Cc1ccccn1)Cc1ccccn1,2.01,
Cc1oc2c(cc(O)c3cc(O)ccc32)c2cccc1-2,> 100,
O=C(OCc1ccccc1)N1CCNCCN(C(=O)OCc2ccccc2)CCNCC1,> 100,
O=C(Cc1ccc(O)c(O)c1)NCc1c[nH]c2ccccc12,> 100,
O=C(NCc1ccccc1)c1n[nH][nH]c1=O,> 100,
COc1cccc(C2SC(N)=Nc3c2c(C)nn3C(=O)c2ccccc2O)c1 (configuration not stated),> 10,
